In patent publication US7781438B2, “Indolylmaleimide derivatives” (Novartis AG, priority 2005, dated 2010):
pIC50: −log10 of the molar value.

Tests used:
Human recombinant PKCβ1 = target: T1, Human recombinant PKCβ1 (Homo sapiens, UniProt P05771); experiment: Protein Kinase Cβ1 assay; format: biochemical; conditions: for pIC50: human recombinant PKCβ1, single compounds
T1 construct: purchased Oxford Biomedical Research
Method: (§1) The compounds of the invention are tested for their activity on different PKC isoforms according to the following method. Assay is performed in a white with clear bottom 384-well microtiterplate with non-binding surface. The reaction mixture (25 μl) contains 1.5 μM of a tridecapeptide acceptor substrate that mimics the pseudo substrate sequence of PKC a with the Ala→Ser replacement, 10 μM ^33P-ATP, 10 mM Mg(NO3)2, 0.2 mM CaCl2, PKC at a protein concentration varying from 25 to 400 ng/ml (depending on the isotype used), lipid vesicles (containing 30 mol % phosphatidylserine, 5 mol % DAG and 65 mol % phosphatidylcholine) at a final lipid concentration of 0.5 mM, in 20 mM Tris-HCl buffer pH 7.4+0.1% BSA. Incubation is performed for 60 min at room temperature. Reaction is stopped by adding […] of stop mix (100 mM EDTA, 200 μM ATP, 0.1% Triton X-100, 0.375 mg/well streptavidin-coated SPA beads in phosphate buffered saline w/o Ca, Mg. After 10 min incubation at room temperature, the suspension is spun down for 10 min at 300 g. Incorporated radioactivity is measured in a Trilux counter for 1 min. IC50 measurement is performed on a routine basis by incubating a serial dilution of inhibitor at concentrations ranging between 1-1000 μM. IC50 values are calculated from the graph by curve fitting with XL Fit® software.
Human recombinant PKCβ1 was obtained from Oxford Biomedical Research and is used under the assay conditions as described under Section A.1 above.

Human recombinant PKCθ = Human recombinant PKCθ (Homo sapiens, UniProt Q04759); experiment: Protein Kinase C θ assay; format: biochemical
Method: as §1, with “software. […]” for “software.”

Human recombinant PKCδ = target: T2, Human recombinant PKCδ (Homo sapiens, UniProt Q05655); experiment: Protein Kinase Cδ assay; format: biochemical
T2 construct: purchased Oxford Biomedical Research
Method: as §1, with “software. […]” for “software.”

Human recombinant PKCη = target: T3, Human recombinant PKCη (Homo sapiens, UniProt P24723); experiment: Protein Kinase Cη assay; format: biochemical
T3 construct: purchased PanVera
Method: as §1, with “software. […]” for “software.”

[1] = system: spleen cells from CBA and BALB/c mice; experiment: Allogeneic Mixed Lymphocyte Reaction (MLR), compared with BM assay; format: cell-based
Method: The two-way MLR is performed according to standard procedures (J. Immunol. Methods, 1973, 2, 279 and Meo T. et al., Immunological Methods, New York, Academic Press, 1979, 227-39). Briefly, spleen cells from CBA and BALB/c mice (1.6×10^5 cells from each strain per well in flat bottom tissue culture microtiter plates, 3.2×10^5 in total) are incubated in RPMI medium containing 10% FCS, 100 U/ml penicillin, 100 μg/ml streptomycin (Gibco BRL, Basel, Switzerland), 50 μM 2-mercaptoethanol (Fluka, Buchs, Switzerland) and serially diluted compounds. Seven three-fold dilution steps in duplicates per test compound are performed. After four days of incubation 1 μCi ^3H-thymidine is added. Cells are harvested after an additional five-hour incubation period, and incorporated ^3H-thymidine is determined according to standard procedures. […]
The ratios of the IC50 value for PKC β to the IC50 value for PKCα, of the IC50 value for PKC δ to the IC50 value for PKCα, of the IC50 value for PKC δ to the IC50 value for PKCα, of the IC50 value for PKC ε to the IC50 value for PKCα, of the IC50 value for PKC η to the IC50 value for PKCα, of the IC50 value for PKC θ to the IC50 value for PKCα, of the IC50 value as determined by the MLR assay and to the IC50 value as determined by the BM assay, obtained for some compounds of the invention are indicated in table 11.

Human recombinant PKCε = target: T4, Human recombinant PKCε (Homo sapiens, UniProt Q02156); experiment: Protein Kinase Cε assay; format: biochemical
T4 construct: purchased Oxford Biomedical Research
T4 sequence (Q02156 1-737): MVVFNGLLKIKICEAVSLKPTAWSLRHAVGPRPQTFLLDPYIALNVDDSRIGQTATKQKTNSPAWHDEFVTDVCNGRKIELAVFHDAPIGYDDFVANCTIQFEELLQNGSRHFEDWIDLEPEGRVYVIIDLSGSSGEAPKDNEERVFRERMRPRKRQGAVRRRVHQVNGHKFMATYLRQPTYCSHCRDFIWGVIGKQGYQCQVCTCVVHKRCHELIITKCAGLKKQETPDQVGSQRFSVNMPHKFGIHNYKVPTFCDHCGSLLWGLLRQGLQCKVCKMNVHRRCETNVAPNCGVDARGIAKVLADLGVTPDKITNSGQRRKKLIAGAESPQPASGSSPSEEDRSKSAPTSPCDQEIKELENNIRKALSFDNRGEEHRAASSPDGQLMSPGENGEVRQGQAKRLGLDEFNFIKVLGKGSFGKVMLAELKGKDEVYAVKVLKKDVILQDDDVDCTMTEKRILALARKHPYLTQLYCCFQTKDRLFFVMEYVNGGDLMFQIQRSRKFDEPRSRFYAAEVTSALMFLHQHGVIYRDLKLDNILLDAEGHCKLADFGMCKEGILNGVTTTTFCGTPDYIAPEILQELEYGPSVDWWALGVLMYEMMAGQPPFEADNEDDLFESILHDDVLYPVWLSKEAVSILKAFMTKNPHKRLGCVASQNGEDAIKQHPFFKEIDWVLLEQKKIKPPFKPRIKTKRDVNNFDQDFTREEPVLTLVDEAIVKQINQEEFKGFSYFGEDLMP
Method: as §1, with “software. […]” for “software.”

Human recombinant PKCα = target: T5, Human recombinant PKCα (Homo sapiens, UniProt P17252); experiment: Protein Kinase Cα assay; format: biochemical; conditions: single compounds
T5 construct: purchased Oxford Biomedical Research
Method: as §1
Human recombinant PKCα was obtained from Oxford Biomedical Research and is used under the assay conditions as described under Section A.1 above.

T1 sequence (P05771 whole entry): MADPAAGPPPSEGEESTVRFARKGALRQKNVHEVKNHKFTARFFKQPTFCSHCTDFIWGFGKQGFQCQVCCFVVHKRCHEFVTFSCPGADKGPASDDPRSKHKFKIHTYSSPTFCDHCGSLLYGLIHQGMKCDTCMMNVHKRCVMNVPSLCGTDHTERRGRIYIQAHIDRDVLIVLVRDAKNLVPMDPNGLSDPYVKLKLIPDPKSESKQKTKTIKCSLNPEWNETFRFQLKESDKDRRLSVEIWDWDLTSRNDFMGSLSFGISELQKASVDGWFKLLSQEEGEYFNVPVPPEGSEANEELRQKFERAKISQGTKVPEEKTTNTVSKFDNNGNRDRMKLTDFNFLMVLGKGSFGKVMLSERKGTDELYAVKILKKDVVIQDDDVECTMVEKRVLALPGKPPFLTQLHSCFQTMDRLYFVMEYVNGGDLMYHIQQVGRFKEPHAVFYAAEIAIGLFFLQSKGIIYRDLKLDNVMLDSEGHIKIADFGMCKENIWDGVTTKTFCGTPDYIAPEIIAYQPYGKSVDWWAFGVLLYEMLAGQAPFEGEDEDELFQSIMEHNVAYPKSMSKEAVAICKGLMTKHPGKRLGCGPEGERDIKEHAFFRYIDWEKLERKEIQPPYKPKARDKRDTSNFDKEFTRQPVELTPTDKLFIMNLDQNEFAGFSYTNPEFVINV
Chain of Human recombinant PKCθ (Q04759 whole entry): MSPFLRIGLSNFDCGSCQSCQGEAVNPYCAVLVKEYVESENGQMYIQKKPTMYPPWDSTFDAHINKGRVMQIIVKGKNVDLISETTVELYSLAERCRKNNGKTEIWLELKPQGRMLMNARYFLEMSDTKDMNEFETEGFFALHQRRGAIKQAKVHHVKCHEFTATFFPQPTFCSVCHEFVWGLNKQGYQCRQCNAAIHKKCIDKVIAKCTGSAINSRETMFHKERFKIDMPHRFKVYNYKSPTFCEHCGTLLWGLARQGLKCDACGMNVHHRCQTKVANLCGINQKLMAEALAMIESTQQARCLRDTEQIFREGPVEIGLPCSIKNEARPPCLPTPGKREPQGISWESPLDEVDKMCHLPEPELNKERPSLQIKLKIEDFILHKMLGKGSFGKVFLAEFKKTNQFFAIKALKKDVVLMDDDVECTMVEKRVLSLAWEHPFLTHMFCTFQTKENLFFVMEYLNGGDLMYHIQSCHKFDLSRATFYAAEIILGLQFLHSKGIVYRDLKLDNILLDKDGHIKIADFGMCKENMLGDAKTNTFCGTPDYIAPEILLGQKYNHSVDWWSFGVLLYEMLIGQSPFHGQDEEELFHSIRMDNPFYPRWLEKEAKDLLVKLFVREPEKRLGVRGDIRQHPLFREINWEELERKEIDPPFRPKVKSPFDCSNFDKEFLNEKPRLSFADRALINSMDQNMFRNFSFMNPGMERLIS
T2 sequence (Q05655 whole entry): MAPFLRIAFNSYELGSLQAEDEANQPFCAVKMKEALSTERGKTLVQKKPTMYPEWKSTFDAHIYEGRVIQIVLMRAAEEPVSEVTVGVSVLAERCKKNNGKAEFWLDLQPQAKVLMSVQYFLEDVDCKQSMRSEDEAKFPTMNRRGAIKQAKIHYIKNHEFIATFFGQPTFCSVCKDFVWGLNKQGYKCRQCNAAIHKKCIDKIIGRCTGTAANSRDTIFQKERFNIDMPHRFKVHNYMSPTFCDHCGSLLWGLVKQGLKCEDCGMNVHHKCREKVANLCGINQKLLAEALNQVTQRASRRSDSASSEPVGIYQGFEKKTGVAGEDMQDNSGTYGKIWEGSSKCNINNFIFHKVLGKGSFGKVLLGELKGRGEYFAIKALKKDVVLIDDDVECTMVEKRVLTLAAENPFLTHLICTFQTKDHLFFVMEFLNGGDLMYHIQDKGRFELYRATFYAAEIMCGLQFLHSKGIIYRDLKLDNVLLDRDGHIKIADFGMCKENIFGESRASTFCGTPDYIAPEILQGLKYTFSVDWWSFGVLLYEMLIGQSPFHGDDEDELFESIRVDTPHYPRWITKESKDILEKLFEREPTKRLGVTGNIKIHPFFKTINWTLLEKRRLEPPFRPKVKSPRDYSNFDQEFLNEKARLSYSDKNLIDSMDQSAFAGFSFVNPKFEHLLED
T3 sequence (P24723 whole entry): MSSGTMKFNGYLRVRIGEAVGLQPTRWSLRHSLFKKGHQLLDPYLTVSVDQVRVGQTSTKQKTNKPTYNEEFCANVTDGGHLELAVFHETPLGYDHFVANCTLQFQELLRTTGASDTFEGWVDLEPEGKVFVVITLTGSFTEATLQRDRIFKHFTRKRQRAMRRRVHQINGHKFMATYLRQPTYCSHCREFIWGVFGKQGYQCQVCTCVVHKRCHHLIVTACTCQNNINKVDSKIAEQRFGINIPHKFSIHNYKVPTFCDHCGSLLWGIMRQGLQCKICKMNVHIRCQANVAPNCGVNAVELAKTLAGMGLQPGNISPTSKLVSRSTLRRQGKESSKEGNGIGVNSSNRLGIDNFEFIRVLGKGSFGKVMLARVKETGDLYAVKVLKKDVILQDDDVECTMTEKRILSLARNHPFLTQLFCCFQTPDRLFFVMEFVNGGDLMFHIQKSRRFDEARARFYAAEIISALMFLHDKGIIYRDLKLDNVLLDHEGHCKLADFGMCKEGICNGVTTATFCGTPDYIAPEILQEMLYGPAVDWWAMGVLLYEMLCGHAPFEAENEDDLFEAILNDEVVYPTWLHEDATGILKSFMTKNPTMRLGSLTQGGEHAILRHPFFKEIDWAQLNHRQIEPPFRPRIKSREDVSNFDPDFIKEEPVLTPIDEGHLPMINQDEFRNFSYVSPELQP

**Q.** With `Cn1cc(C2=C(c3c(Cl)ccc4ccc(CNCCF)cc34)C(=O)NC2=O)c2ccccc21` [Example 1, 3-{2-Chloro-7-[(2-fluoro-ethylamino)-methyl]-naphthalen-1-yl}-4-(1-methyl-1H-indol-3-yl)-pyrrole-2,5-dione] as the molecule, how does the “β/α (ratio of the IC50 value for PKC β to the IC50 value for PKCα)” value (Human recombinant PKCβ1) read?
**A.** 0.5

**Q.** And the “θ/α (ratio of the IC50 value for PKC θ to the IC50 value for PKCα)” value (Human recombinant PKCθ)?
**A.** 2.9

**Q.** What about the “δ/α (ratio of the IC50 value for PKC δ to the IC50 value for PKCα)” value (Human recombinant PKCδ) of the same molecule?
**A.** 7.1

**Q.** And the “η/α (ratio of the IC50 value for PKC η to the IC50 value for PKCα)” value (Human recombinant PKCη)?
**A.** 39.3

**Q.** And the “BM/MLR (ratio of IC50 by the BM assay and IC50 by the MLR assay)” value [1]?
**A.** 41.3

**Q.** What about the “ε/α (ratio of the IC50 value for PKC ε to the IC50 value for PKCα)” value (Human recombinant PKCε) of the same molecule?
**A.** 19.4

**Q.** `CN(C)Cc1ccc2ccc(Cl)c(C3=C(c4cn5c6c(cccc46)OCCC5)C(=O)NC3=O)c2c1` [Example 20] was tested. Which “β/α (ratio of the IC50 value for PKC β to the IC50 value for PKCα)” value (Human recombinant PKCβ1) did it give?
**A.** 0.4

**Q.** What about the pIC50 (Human recombinant PKCβ1) of the same molecule?
**A.** 7.91

**Q.** What about the “θ/α (ratio of the IC50 value for PKC θ to the IC50 value for PKCα)” value (Human recombinant PKCθ) of the same molecule?
**A.** 14.2

**Q.** And the pIC50 (Human recombinant PKCα)?
**A.** 7.55

**Q.** And the “δ/α (ratio of the IC50 value for PKC δ to the IC50 value for PKCα)” value (Human recombinant PKCδ)?
**A.** 30.6

**Q.** What about the “η/α (ratio of the IC50 value for PKC η to the IC50 value for PKCα)” value (Human recombinant PKCη) of the same molecule?
**A.** >35.7

**Q.** And the “BM/MLR (ratio of IC50 by the BM assay and IC50 by the MLR assay)” value [1]?
**A.** >10

**Q.** And the “ε/α (ratio of the IC50 value for PKC ε to the IC50 value for PKCα)” value (Human recombinant PKCε)?
**A.** >35.7

**Q.** With `COc1cccc2c(C3=C(c4c(Cl)ccc5ccc(CN(C)C)cc45)C(=O)NC3=O)c[nH]c12` [Example 37] as the molecule, how does the pIC50 (Human recombinant PKCα) read?
**A.** 8.52

**Q.** With `COCCOc1ccc2c(C3=C(c4c(Cl)ccc5ccc(CN(C)C)cc45)C(=O)NC3=O)c[nH]c2c1` [Example 38] as the molecule, how does the pIC50 (Human recombinant PKCα) read?
**A.** 8.05

**Q.** `Cc1cccc2c(C3=C(c4c(Cl)ccc5ncc(CN(C)C)cc45)C(=O)NC3=O)c[nH]c12` [Example 136] was tested. Which pIC50 (Human recombinant PKCβ1) did it give?
**A.** 7.29

**Q.** With `CN(C)Cc1cc2c(C3=C(c4c[nH]c5ccccc45)C(=O)NC3=O)c(Cl)ccc2cn1` [Example 146] as the molecule, how does the pIC50 (Human recombinant PKCβ1) read?
**A.** 7.60

**Q.** How did the pIC50 (Human recombinant PKCβ1) turn out when `CN(C)Cc1ccc2ccc(Cl)c(C3=C(c4cn(C)c5ccccc45)C(=O)NC3=O)c2n1` [Example 163] was run?
**A.** 7.39
